Among the data in ChEMBL document CHEMBL1158934, “Anthelmintic polyfunctional nitrogen-containing terpenoids from marine sponges” (J Nat Prod, 1991) are Activity values, retold here.

Common to all, as to type: functional, organism-based
In test [1] the test system is Nippostrongylus brasiliensis. Description: Antimicrobial activity against Nippostrongylus brasiliensis.
The subject of another test is Staphylococcus aureus. Put plainly: Antimicrobial activity against Staphylococcus aureus.
The test system of test [2] is Trichophyton mentagrophytes. Put plainly: Antimicrobial activity against Trichophyton mentagrophytes.
The next test relates to Candida albicans. Description: Antimicrobial activity against Candida albicans.

SMILES strings stand for the structures. Active and inactive are the calls of the source. The rule behind the calls is not given here.

Regarding `[C-]#[N+][C@@H]1[C@H]2[C@H](CC[C@@]1(C)O)C(=C)CC[C@@H]2[C@@]1(C)CC[C@H](Cl)C(C)(C)O1`, in test [1], the outcome was inactive.

As to `CC1=C[C@H]2[C@@H](CC1)[C@@](C)(N=S)CC[C@H]2C(C)C`, in test [1], the result was inactive.

In the case of `CC1(C)O[C@@](C)([C@H]2CC[C@@](C)(N=C=S)[C@H]3CC[C@@](C)(O)[C@H](NC=O)[C@@H]32)CC[C@@H]1Cl`, in test [1], the result was inactive.

Take `CC1=CC2=C(C(C)C)CC[C@](C)(N=C=S)[C@@H]2CC1`: the result in test [1] was inactive.

`[C-]#[N+][C@@H]1[C@H](C(C)C)CC[C@@H](C)[C@@]12C=C(C)CC2`: the result (with Staphylococcus aureus; in test [2]; with Candida albicans) was Active. Also, in test [1], the result was inactive.

Regarding `[C-]#[N+][C@@H]1[C@H]2[C@H](CC[C@@]1(C)O)[C@](C)(N=C=S)CC[C@@H]2[C@@]1(C)CC[C@H](Cl)C(C)(C)O1`, the outcome (in the test on Staphylococcus aureus; in test [1]; in test [2]; in the test on Candida albicans) was Active.

For `CC1=CC[C@@H](C(C)C)[C@H]2C[C@@](C)(N=C=S)CC[C@@H]12` (relative stereo), the result in test [1] was inactive.
